Laboratory results from patent publication US4098823A, “Monospiroalkyl derivatives of prostaglandins” (Miles Laboratories, Inc., priority 1977, dated 1978).
Values belong to the compound of their own block, whether it stands above or below them.

Legend:
[1] = test system: steroidogenesis in the adrenal glands; conditions: hypophysectomized rats; cited from earlier work
[2] = test system: Human Platelet Aggregation; assay: Inhibition of Human Platelet Aggregation; assay type: cell-based; conditions: in vitro
Method: The ability of test compounds to inhibit platelet aggregation was determined by a modification of the turbidometric technique of Born (Nature, 194:927 [1962]). Blood was collected from human volunteers who had not ingested aspirin or aspirin-containing products within the preceding two weeks in heparinized containers and was allowed to settle for one (1) hour. The platelet rich plasma (prp) supernates were collected and cooled. Siliconized glassware was used throughout.
In a representative assay 1.9 ml of PRP and 0.2 ml of test compound at the appropriate concentrations (0.001 to 100 mcgm), or 0.2 ml of distilled water (control procedure) were placed in sample cuvettes. The cuvettes were placed in a 37° C incubation block for 15 minutes, and then in a spectrophotometer linked to a strip chart recorder. After 30-60 seconds, 0.2 ml of a solution, prepared by diluting a calf-skin collagen solution 1:9 with Tyrodes' Solution, was added to each cuvette. Platelet aggregation was evidenced by a decrease in optical density.
An ED50 value was then determined graphically.

Gastric Secretion = assay: Effects on Gastric Secretion in the Rat; assay type: in vivo; conditions: pylorus-ligated rat, subcutaneous, 2 x 1.5 mg/kg (total 3.0 mg/kg), 4 hours
Method: A procedure based on that described by Lipmann (J. Pharm. Pharmacol., 21:335 [1968]) was used to assess the influence of test compounds on gastric secretion. Rats of one sex weighing 150 to 200 g were randomly divided into groups of six animals each and fasted for 48 hours previously to the experiments, water being available adlibitum. The animals were anesthetized with ether, the abdomen was opened through a midline incision and the pylorus was ligated. Test compounds were diluted from stock solution so as to administer a dose of 1.5 mg/kg in a volume equivalent to 1 ml/kg. Subcutaneous injections were applied immediately after surgery and again 2 hours later, so that a total dose of 3.0 mg/kg was administered. Dilutions were made with phosphate buffer (pH 7.38) as recommended by Lee et al. (Prostaglandins 3:29 [1973]), in order to insure adequate stability of drugs at the subcutaneous depot. Each compound was tested in one group of rats; an additional control group received only the vehicle.
Four hours after pyloric ligation the animals were killed with ether, the cardias ligated and the stomachs removed. The volume of gastric secretion was measured and the contents centrifuged at 500 rpm for 10 minutes. Total acid in the supernatant was titrated against a 0.1 N sodium hydroxide solution and the amount expressed in mEq.
Volume and total acid values of the treated group were compared with those of the controls by the "T" test. Antisecretory activity was scored according to the following scale: […]

rat stomach fundus = assay: Cascade Assay, stomach (smooth muscle stimulant effect); assay type: cell-based; conditions: superfused, 50% of maximum (PGE1)
Method: (§1) The smooth muscle stimulant effects of test compounds were determined simultaneously in four different tissues that are known to be reactive to naturally occurring prostaglandins. Segments of rat stomach fundus, rat colon, chick rectum and rabbit aortic strip were obtained as described by: Vane, J. R., Brit. J. Pharmacol., 12: 344 (1957); Regoli, D. and Vane, J. R., Brit. J. Pharmacol., 23: 351 (1964); Mann, M. and West, G. B., Brit. J. Pharmacol., 5: 173 (1950); and Furchgott, R. F. and Bhadrakom, R., J. Pharmacol. Exper. Ther., 108: 129 (1953). One end of each preparation was tied to the bottom of a 10 ml tissue chamber and the other to a force displacement transducer (Grass FT-03) for continuous tension recording. The stomach, colon, and rectum segments were stretched to an initial tension of 1 g, while the aortic strip was subjected to 4 g. All preparations were left undisturbed for 1 hour prior to testing. The chambers were equipped with an external jacket through which water, maintained at 40° C, was circulated. Preparations were arranged one beneath the other in descending order (aorta, stomach, colon and rectum). Provision was made for bathing the four tissues successively so that they were superfused with the same fluid (Gaddum, H. J., Brit. J. Pharmacol., 6: 321 [1953]. The bathing fluid consisted of: Krebs bicarbonate solution aerated with a mixture of 95% O2 and 5% CO2 and warmed at 37° C; atropine sulphate (0.1 mcg/ml), phenoxybenzamine hydrochloride (0.1 mcg/ml), propranolol hydrochloride (3.0 mcg/ml), methysergide maleate (0.2 mcg/ml) and brompheniramine maleate (0.1 mcg/ml) were added to eliminate the possibility of smooth muscle responses being due to stimulation of cholinergic, adrenergic, serotonin or histamine receptors. The fluid was circulated by means of a roller pump and was allowed to drip over the preparations at a rate of 10 ml/minute.
(§2) Test compounds were diluted from stock solutions so as to administer quantities ranging from 0.001 100,000 ng in a volume of 0.5 ml. The compounds were applied by dripping on the uppermost tissue, at intervals of 10 to 20 minutes. Maximal increases in tension after each dose were measured and the results were used to plot dose-response curves. ED50 data (doses necessary to produce a response 50% of maximum) were then calculated graphically for each tissue.
(§3) Activity in each tissue was scored according to the following scale: […]

rat colon = assay: Cascade Assay, colon (smooth muscle stimulant effect); assay type: cell-based; conditions: superfused, 50% of maximum (PGF2α)
Method: as §1, §2, §3

chick rectum = assay: Cascade Assay, rectum (smooth muscle stimulant effect); assay type: cell-based; conditions: superfused, 50% of maximum (PGE1)
Method: as §1, §2, §3

rabbit aortic strip = assay: Cascade Assay, aorta (smooth muscle stimulant effect); assay type: cell-based; conditions: superfused, 50% of maximum (PGA2)
Method: as §1, §2, §3

Rat Uterus = assay: Effects on the Rat Uterus in Vitro; assay type: cell-based; conditions: Rattus norvegicus; in vitro, 29° C; response 50% that of carbachol; read-out: Test F Rat Uterus, Activity Value (ED50)
Method: The uterine stimulant effect of test compounds was determined in segments of uterus obtained from rats (140-160 g) pretreated subcutaneously with 1 mg/kg of diethyl-stilbesterol 18 hours before the experiment. The tissues were placed in 10 ml chambers filled with de-Jalon solution at 29° C, were aerated and bubbled with 95% O2 and 5% CO2, and were prepared for isometric recording with force displacement transducers. Preparations were stretched to an initial tension of 1 g and were left undisturbed for 30 minutes. Carbachol (1 mcg/ml) was then added to the bath and a response was recorded. After a 10 minute interval the carbachol procedure was repeated. Responses to increasing concentrations of a test compound (0.001 to 10 mcg/ml with one log intervals) were then recorded every 10 minutes. Preparations were washed four times after each response. All doses of compounds were administered in a 0.1 ml volume. Because it has been observed that the magnitude of the second response to carbachol (approximately 10% greater than the first) is close to the maximal response of the tissue, such value was taken as a measure of the sensitivity of a particular segment. Responses to each concentration of the test compound were expressed in terms of percentage of the second response to carbachol and the ED50 (dose producing a response 50% that of carbachol) was calculated graphically. Activity was scored according to the following scale: […]

[3] = test system: female reproductive system; conditions: in vivo; cited from earlier work
adrenergic nerve endings = conditions: guinea pig; cited from earlier work
Femoral Blood Flow = assay: Effects on Femoral Blood Flow in the Dog; assay type: in vivo; conditions: anesthetized mongrel dog, intraarterial, 0.001 to 10 mcg
Method: The peripheral vasodilator or constrictor effects of these compounds were determined in mongrel dogs of either sex, weighing between 10 and 20 kg anesthestized intravenously with 35 mg/kg of sodium pentobarbital. An external iliac artery was dissected immediately above the femoral arch for a length of approximately 5 cm and a previously calibrated, non-connulating electromagnetic flowmeter sensor with a lumen between 2.5 and 3.5 mm was placed snugly around the vessel. Cannulas were placed in a branch of the artery arising distally to the location of the flowmeter sensor for intraarterial drug administrations, in the contralateral femoral artery for systemic blood pressure recordings and in the trachea for artificial respiration with room air. Femoral blood flow and systemic blood pressure were continously recorded with an electromagnetic flowmeter and pressure tranducer, respectively.
After an adequate control period, test compounds were injected intraarterially at one log-spaced doses ranging from 0.001 to 10 mcg., in a volume of 0.5 ml and at 5 to 10 minute intervals. Maximum changes in bloodflow, as well as any variations in blood pressure, were tabulated for each dose in absolute values (ml/min. and mmHg). The calculations were made taking as control values those existing immediately before administration of each dose. The direction of the observed change (plus for increase and minus for decrease) was also noted. The dose changing bloodflow by 100 ml/min (ED100 ml/min) was calculated graphically and was used for scoring activity as follows: […]

[4] = test system: Blood Pressure and Heart Rate; assay: Effects on Blood Pressure and Heart Rate in the Anesthetized Cat; assay type: in vivo; conditions: Felis catus, intravenous, 0.01 to 10.0 mcg/kg, scored only on hypotension, read-out: Test D Activity Value (ED50 mmHg, decrease in blood pressure);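 note: Anesthetized cats given intravenous doses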
Method: The acute effects of test compounds on blood pressure and heart rate were determined in cats of either sex anesthetized with a mixture of pentobarbital sodium (35 mg/kg, i.v.) and barbital sodium (100 mg/kg, i.v.). Cannulas were placed in the trachea to allow adequate spontaneous ventilation, in a femoral artery for blood pressure recording with a strain gage transducer, and in a saphenous vein for drug administration. Heart rate was recorded by means of a cardiotachometer driven by the R wave of the electrocardiogram. After a period of 10 minutes of stable recordings of blood pressure and heart rate, the test compound was administered intravenously at doses increasing from 0.01 to 10.0 mcg/kg, spaced one log and injected at 10 minutes intervals. All doses were injected in a volume of 0.1 ml/kg. Modifications of blood pressure and heart rate induced by the test compound were expressed both in absolute units (mmHg and beats/minutes) and as percent of values recorded immediately before administration of each dose. Biphasic responses were tabulated in the order in which they occur. The direction of the observed changes was also noted (+ for increases and - for decreases).
Activity of compounds in this test was judged only on the basis of the degree of hypotension observed. Thus, the ED50 mmHg (dose decreasing blood pressure by 50 mmHg) was calculated graphically and the compound scored according to the following scale: […]

SMILES: CCCCC[C@H](O)/C=C/[C@@H]1[C@@H](CCCCCCC(=O)O)[C@@H](O)C[C@H]1O [PGF1α]
steroidogenesis in the adrenal glands [1]: stimulate steroidogenesis in the adrenal glands

SMILES: CCCCC[C@H](O)/C=C/[C@H]1[C@H](O)CC(=O)[C@@H]1C/C=C\CCCC(=O)O [PGE2]
steroidogenesis in the adrenal glands [1]: stimulate steroidogenesis in the adrenal glands
effect in the female reproductive system (fertility, labor, abortion) [3]: potent oxytocic effects in inducing labor
transmitter release from adrenergic nerve endings (adrenergic nerve endings): inhibit transmitter release from adrenergic nerve endings

Now from value to compound, other results behind:

EC50 (Rat Uterus): > 10 µg/mL
SMILES: COC(=O)CCCCCC[C@H]1C(=O)C[C@@H](O)[C@@H]1/C=C/[C@@H](O)C1(C)CC2(CCC2)C1 [TR-4845, Methyl 7-{3R-hydroxy-5-oxo-2R-[3R-hydroxy-3-(2-methylspiro[3.3]hept-2-yl)-1E-propenyl]cyclopent-1R-yl}heptanoate]
inhibition of aggregation of human platelets, in words [2]: inhibit aggregation of platelets
Test B Activity Value (% decrease in acidity, inhibition of gastric secretion) (Gastric Secretion): 3 (51-75)
Test E Cascade Assay, Stomach, Activity Value (ED50) (rat stomach fundus): 0 (>10000)
Test E Cascade Assay, Colon, Activity Value (ED50) (rat colon): 0 (>10000)
Test E Cascade Assay, Rectum, Activity Value (ED50) (chick rectum): 0 (>10000)
Test E Cascade Assay, Aorta, Activity Value (ED50) (rabbit aortic strip): 0 (>10000)

EC50 (Rat Uterus): > 10 µg/mL
SMILES: O=C(O)CCCCCC[C@H]1C(=O)CC[C@@H]1/C=C/[C@@H](O)C1CCC2(CCCCC2)CC1 (relative stereo) [TR-4021, dl 7-{5-oxo-2R-[3S-hydroxy-3-(spiro[5.5]undecan-3-yl)-1E-propenyl]cyclopent-1R-yl} heptanoic acid]
Test B Activity Value (% decrease in acidity, inhibition of gastric secretion) (Gastric Secretion): 0 (<26)
Test C Activity Value (ED100 ml/min, increase in femoral blood flow) (Femoral Blood Flow): 0 (>10.0)
ED (50 mmHg) [4]: > 0.01 mg/kg
Test E Cascade Assay, Stomach, Activity Value (ED50) (rat stomach fundus): 4 (<10)
Test E Cascade Assay, Colon, Activity Value (ED50) (rat colon): 0 (>10000)
Test E Cascade Assay, Rectum, Activity Value (ED50) (chick rectum): 0 (>10000)
Test E Cascade Assay, Aorta, Activity Value (ED50) (rabbit aortic strip): 0 (>10000)

EC50 (Rat Uterus): > 10 µg/mL
SMILES: O=C(O)CCCCCC[C@H]1C(=O)CC[C@@H]1/C=C/[C@H](O)C1CCC2(CCCCC2)CC1 (relative stereo) [TR-4020, dl 7-{5-oxo-2R-[3R-hydroxy-3-(spiro[5.5]undecan-3-yl)-1E-propenyl]cyclopent-1R-yl}heptanoic acid]
Test B Activity Value (% decrease in acidity, inhibition of gastric secretion) (Gastric Secretion): 0 (<26)
Test C Activity Value (ED100 ml/min, increase in femoral blood flow) (Femoral Blood Flow): 0 (>10.0)
ED (50 mmHg) [4]: > 0.01 mg/kg
Test E Cascade Assay, Stomach, Activity Value (ED50) (rat stomach fundus): 2 (101 - 1000)
Test E Cascade Assay, Colon, Activity Value (ED50) (rat colon): 0 (>10000)
Test E Cascade Assay, Rectum, Activity Value (ED50) (chick rectum): 0 (>10000)
Test E Cascade Assay, Aorta, Activity Value (ED50) (rabbit aortic strip): 0 (>10000)
